Experimental data as given in patent publication EP0469084B1, “HEPATOSPECIFIC INSULIN ANALOGUES” (MOUNT SINAI SCHOOL OF MEDICINE OF THE CITY UNIVERSITY OF …, priority 1989, dated 1995).
Each block holds one substance with its values, some of them ahead of it.

Legend:
[1] = from U.S. Patent 4,992,417 and PCT/US88/02289; cited from earlier work
insulin receptors = assay: Insulin receptor binding assay (inhibition of specific 125I-insulin binding, rat liver plasma membrane fraction); settings: concentration ratio of unlabelled insulin to analogue required to inhibit 50% of specific 125I-insulin binding; rat liver plasma membranes, 45 min at 24°C, pH 7.4
Protocol: Although insulin analogues, in general, maintain some residual insulin activity, the potency of such analogues is usually only a fraction of that of natural insulins. The potency of human, bovine and porcine insulins in USP standards is about 25-26 IU (international units) per mg protein. […]
Briefly, triplicate 0.2ml incubations contained ¹²⁵I-insulin, 3 x 10⁻¹⁰M, unlabelled insulin or [Trp¹⁴-A] insulin prepared as in Example 1, and plasma membranes (20-40 »g of protein) in 0.1 M sodium phosphate, pH 7.4, containing 0.6% fraction V bovine serum albumin. […] The filters were washed twice with the ice cold buffer, dried, and then radioactivity was counted in a scintillation counter using Filtron-X®. […]

rat adipocytes = assay: Lipogenesis assay (conversion of [3-3H] glucose into lipids in isolated adipocytes); format: cell-based; settings: for potency in lipogenesis compared to the natural hormone: concentration ratio of bovine insulin to analogue producing 50% of maximum stimulation of lipogenesis
Description: (§1) Although insulin analogues, in general, maintain some residual insulin activity, the potency of such analogues is usually only a fraction of that of natural insulins. The potency of human, bovine and porcine insulins in USP standards is about 25-26 IU (international units) per mg protein. Standard assay for measuring insulin potency include inter alia (1) insulin radioreceptorassays, in which the relative potency of an insulin is defined as the ratio of insulin to insulin analogue required to displace 50% of ¹²⁵I-insulin specifically bound to insulin receptors present on cell membranes, e.g. a rat liver plasma membrane fraction, isolated rat adipocytes, or isolated rat hepatocytes; (2) lipogenesis assays, performed e.g. with rat adipocytes, in which relative insulin potency is defined as the ratio of insulin to insulin analogue required to achieve 50% of the maximum conversion of [3-³H] glucose into organic-extractable material (i.e. lipids); (3) glucose oxidation assays in isolated fat cells in which the relative potency of the insulin analogue is defined as the ratio of insulin to insulin analogue to achieve 50% of the maximum conversion of glucose-1-[¹⁴C] into [¹⁴CO₂]; (4) insulin radioimmunoassays which can determine the immunogenicity of insulin analogues by measuring the effectiveness by which insulin or an insulin analogue competes with ¹²⁵I-insulin in binding to specific anti-insulin antibodies; (5) inhibition of gluconeogenesis performed on confluent monolayers of a well differentiated hepatoma cell line (FAO) in which inhibition of glucose secretion into the medium is determined as a function of the concentration of insulin or insulin analogue.
In this Example the materials used and the analytical procedures followed are those found in Kitagawa et al., Biochemistry, 23: 1405-1413 (1984). ¹²⁵I-insulin for receptor binding studies and [3-³H] glucose for lipogenesis were obtained from DuPont NEN Research Products. Cellulose acetate membrane filters, 0.2 »m pore size, were products of Sartorius. Glass-fiber filters, Type GFC, were from Whatman. Collagenase, Type II crude, was obtained from Worthington. […]
These assays measured the ability of the insulin analogue as compared to bovine insulin to convert [3-³H] glucose into lipids.
Adipocytes were prepared by incubating epididymal and perirenal fat pads obtained from male rats weighing 200-300 g with 1.0 mg/ml collagenase for 60 min at 37°C, followed by filtration through gauze and then through fine-mesh silk. […] Samples were extracted with 10 ml of Soluscint-0® for 30 min at room temperature before counting the radioactivity in a scintillation counter. […] Zero and 100% stimulation of lipogenesis were defined as radioactivity observed in the absence and presence, respectively, of 9.1 x 10⁻¹⁰M insulin (5.5 ng/ml). […]

FAO cells = assay: Inhibition of gluconeogenesis assay (glucose secretion by confluent hepatoma cell monolayers); format: cell-based; settings: for potency in inhibiting gluconeogenesis relative to the natural hormone: ratio of concentration of insulin to analogue producing half-maximal inhibition of glucose production, FAO hepatoma cells
Description: as §1
This assay was carried out on confluent monolayers of a well differentiated hepatoma cell line (Lauris et al. Endocrinology 118:2519-2524 (1986)) in which glucose production was monitored with a commercial glucose oxidase kit (Sigma kit no. 510-A, Sigma Technical Bulletin 510, 1983). Inhibition of glucose secretion into the medium was determined as a function of the concentration of insulin or insulin analogue, and the relative potency of the analogue was defined as the ratio of the concentration of insulin to analogue required to produce half-maximal inhibition of glucose production. The cell culture and glucose production was carried out as described by Lauris et al., supra.
The potency of the synthetic insulin in inhibiting gluconeogenesis is calculated to be about 90% relative to the natural hormone.

[2] = from W. Danho et al., Chemical Abstracts 94: 47733x; cited from earlier work
[3] = compared with insulin, FAO cells

Substance: [10-Aspartic Acid-B] human insulin
potency relative to natural insulins [1]: 4 to 5 times

potency of that of the natural hormone (relative potency, receptor binding) (insulin receptors): about 60%
Substance: [Trp¹⁴-A] insulin
concentration of agonist producing half-maximal stimulation of lipogenesis (rat adipocytes; compared with bovine insulin): about twice the concentration of agonist
maximum stimulation of lipogenesis (rat adipocytes; compared with bovine insulin): same maximum stimulation of lipogenesis
potency in lipogenesis compared to the natural hormone (rat adipocytes): about 60%
potency in lipogenesis compared to the natural hormone (rat adipocytes; listed as synthetic insulin): approximately 60%
concentration of agonist producing half-maximal inhibition of gluconeogenesis (FAO cells; [3]): approximately the same concentration of agonist
maximum inhibition of gluconeogenesis (FAO cells; [3]): same maximum inhibition of gluconeogenesis
potency in inhibiting gluconeogenesis relative to the natural hormone (FAO cells): 90%
potency in inhibiting gluconeogenesis relative to the natural hormone (FAO cells; listed as [Trp ¹⁴-A] insulin): about 90%

Substance: porcine A14-phenylalanine insulin
biological activity compared with native insulin [2]: virtually the same biological activity as native insulin
